Experiments:
[1] = more modest effects, clinical; cited from earlier work
[2] = target: MATE2-K (Homo sapiens, UniProt Q86VL8); test: Inhibition of MATE2-K transport of tetraethylammonium; format: cell-based
[3] = target: T1, MATE1 (Homo sapiens, UniProt Q96FL8); test: Inhibition of MATE1 transport of tetraethylammonium; format: cell-based
T1 sequence (Q96FL8 1-570): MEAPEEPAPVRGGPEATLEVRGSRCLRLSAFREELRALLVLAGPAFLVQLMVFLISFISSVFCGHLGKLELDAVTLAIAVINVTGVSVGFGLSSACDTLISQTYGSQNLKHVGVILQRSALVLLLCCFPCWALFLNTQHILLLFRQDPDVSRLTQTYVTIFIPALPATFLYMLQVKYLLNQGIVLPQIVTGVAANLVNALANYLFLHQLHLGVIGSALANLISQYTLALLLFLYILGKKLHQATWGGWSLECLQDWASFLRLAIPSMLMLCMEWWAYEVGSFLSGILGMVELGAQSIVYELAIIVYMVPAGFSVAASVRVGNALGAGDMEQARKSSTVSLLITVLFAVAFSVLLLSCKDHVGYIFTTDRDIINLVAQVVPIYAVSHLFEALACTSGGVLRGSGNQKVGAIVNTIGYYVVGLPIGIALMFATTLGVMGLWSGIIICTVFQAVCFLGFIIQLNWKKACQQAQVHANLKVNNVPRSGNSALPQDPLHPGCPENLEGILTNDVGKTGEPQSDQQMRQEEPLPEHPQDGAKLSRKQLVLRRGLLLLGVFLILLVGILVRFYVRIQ

[4] = target: T2, OAT3 (Homo sapiens, UniProt Q8TCC7); details: cobicistat 1 μmol/l; HEK293; diclofenac or probenecid 90 μmol/l
T2 sequence (Q8TCC7 1-542): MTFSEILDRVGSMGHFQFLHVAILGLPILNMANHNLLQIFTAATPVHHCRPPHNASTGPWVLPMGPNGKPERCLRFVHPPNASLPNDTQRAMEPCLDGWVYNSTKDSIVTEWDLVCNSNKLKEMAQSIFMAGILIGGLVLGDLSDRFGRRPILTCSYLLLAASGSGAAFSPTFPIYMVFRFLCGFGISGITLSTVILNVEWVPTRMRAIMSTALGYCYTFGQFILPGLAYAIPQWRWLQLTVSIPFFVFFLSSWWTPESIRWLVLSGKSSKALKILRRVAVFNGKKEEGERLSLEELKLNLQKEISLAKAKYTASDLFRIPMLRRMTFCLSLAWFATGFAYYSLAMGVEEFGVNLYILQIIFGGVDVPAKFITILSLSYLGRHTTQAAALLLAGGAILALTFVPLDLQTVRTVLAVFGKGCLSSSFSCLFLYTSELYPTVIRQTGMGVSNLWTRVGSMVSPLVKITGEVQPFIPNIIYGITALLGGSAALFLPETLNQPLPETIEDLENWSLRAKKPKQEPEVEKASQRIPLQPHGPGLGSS

[5] = target: T1, MATE1; test: Inhibition of MATE1-mediated creatinine transport; format: cell-based
[6] = target: T3, OCT3 (Homo sapiens, UniProt O75751); test: Inhibition of OCT3 transport of 1-methyl-4-phenylpyridinium; format: cell-based; details: for Concentration-dependent inhibition of OCT3-dependent transport: model substrate, curve could not be generated
T3 sequence (O75751 1-556): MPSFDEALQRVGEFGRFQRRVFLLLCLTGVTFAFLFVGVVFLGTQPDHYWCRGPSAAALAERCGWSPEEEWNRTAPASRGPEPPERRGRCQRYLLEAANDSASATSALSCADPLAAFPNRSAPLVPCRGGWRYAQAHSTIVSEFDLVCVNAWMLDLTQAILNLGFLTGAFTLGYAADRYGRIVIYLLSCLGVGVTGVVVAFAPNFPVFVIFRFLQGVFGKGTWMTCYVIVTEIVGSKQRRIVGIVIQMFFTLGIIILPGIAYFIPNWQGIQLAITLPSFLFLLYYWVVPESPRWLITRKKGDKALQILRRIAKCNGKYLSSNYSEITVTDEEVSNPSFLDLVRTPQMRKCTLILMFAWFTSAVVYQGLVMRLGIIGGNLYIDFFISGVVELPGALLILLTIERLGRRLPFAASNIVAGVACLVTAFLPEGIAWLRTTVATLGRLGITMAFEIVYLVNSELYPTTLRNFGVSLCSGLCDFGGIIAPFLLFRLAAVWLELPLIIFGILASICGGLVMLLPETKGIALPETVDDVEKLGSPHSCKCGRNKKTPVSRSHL

[7] = clinical plasma concentration; cited from earlier work
[8] = target: T4, OCT2 (Homo sapiens, UniProt O15244); test: Cobicistat uptake in MDCKII cells transfected with OCT2; format: cell-based; details: cobicistat 1 μmol/l; vs nontransfected MDCKII cells; 5% bovine serum albumin
T4 sequence (O15244 1-555): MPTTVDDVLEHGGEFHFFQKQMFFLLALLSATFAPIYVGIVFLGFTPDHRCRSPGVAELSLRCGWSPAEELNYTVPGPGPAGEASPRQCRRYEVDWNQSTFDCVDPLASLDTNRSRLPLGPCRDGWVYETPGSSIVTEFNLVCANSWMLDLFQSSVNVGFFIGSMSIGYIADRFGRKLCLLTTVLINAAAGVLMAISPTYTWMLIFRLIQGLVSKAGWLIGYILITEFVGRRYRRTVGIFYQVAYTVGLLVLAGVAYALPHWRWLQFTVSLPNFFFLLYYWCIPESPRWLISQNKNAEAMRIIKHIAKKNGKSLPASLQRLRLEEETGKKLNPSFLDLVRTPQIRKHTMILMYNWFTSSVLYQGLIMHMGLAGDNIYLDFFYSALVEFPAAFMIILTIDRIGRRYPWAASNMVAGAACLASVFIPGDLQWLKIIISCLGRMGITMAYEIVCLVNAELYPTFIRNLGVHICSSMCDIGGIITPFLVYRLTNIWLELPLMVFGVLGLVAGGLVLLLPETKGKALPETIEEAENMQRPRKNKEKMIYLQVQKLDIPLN

[9] = target: T5, OAT2 (Homo sapiens, UniProt Q9Y694); test: Inhibition of OAT2 transport of 3′,5′-cyclic GMP; format: cell-based
T5 sequence (Q9Y694 1-548): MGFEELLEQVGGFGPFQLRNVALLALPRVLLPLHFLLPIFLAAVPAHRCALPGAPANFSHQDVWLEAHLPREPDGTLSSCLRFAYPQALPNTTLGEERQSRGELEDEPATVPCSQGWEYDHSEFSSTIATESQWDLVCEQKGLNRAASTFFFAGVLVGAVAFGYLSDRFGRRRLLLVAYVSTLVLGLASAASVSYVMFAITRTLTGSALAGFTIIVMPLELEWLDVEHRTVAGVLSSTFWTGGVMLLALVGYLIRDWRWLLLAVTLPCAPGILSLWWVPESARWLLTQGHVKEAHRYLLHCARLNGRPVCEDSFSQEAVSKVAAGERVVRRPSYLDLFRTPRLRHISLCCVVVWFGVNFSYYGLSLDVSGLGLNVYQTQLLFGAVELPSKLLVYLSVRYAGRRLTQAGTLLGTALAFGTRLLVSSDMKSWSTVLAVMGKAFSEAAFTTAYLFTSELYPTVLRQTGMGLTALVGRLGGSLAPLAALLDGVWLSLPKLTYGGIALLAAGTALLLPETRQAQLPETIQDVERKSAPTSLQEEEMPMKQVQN

[10] = system: human primary proximal tubule cells; test: Cobicistat uptake in fresh isolated primary proximal tubule cells; format: cell-based; details: cobicistat 1 μmol/l; cimetidine 1500 μmol/l or probenecid 90 μmol/l
[11] = target: T4, OCT2; test: Inhibition of OCT2 transport of tetraethylammonium; format: cell-based
[12] = cited from earlier work
[13] = target: T4, OCT2; test: Inhibition of OCT2-dependent metformin transport; format: cell-based
[14] = most prominent effects, clinical; cited from earlier work
[15] = system: MATE1; details: read-out: Ki MATE1; cited from earlier work
[16] = system: MATE2-K; details: read-out: Ki MATE2-K; cited from earlier work

MATE2-K (Homo sapiens, UniProt Q86VL8), sequence (Q86VL8 1-566 isoform Q86VL8-3): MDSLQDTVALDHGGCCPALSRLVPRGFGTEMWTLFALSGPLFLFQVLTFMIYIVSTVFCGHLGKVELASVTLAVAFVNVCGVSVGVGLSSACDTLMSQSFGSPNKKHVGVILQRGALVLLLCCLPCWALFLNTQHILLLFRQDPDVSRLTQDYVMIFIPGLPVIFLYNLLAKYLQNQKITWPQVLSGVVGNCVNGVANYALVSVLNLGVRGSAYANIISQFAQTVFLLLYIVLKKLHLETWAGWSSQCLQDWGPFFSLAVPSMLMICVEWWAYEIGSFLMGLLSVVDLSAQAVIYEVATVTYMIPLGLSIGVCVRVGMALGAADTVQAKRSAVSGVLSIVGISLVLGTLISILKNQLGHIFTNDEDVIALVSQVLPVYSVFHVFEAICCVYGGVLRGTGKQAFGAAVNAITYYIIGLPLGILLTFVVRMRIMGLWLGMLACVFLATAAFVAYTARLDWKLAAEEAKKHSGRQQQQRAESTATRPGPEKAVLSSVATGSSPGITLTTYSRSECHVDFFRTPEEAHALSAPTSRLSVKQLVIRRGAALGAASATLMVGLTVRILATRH

For `CC(C)c1nc(CN(C)C(=O)N[C@@H](CCN2CCOCC2)C(=O)N[C@H](CC[C@H](Cc2ccccc2)NC(=O)OCc2cncs2)Cc2ccccc2)cs1` [Cobicistat, cobicistat], the Serum creatinine increases [1] is listed as ~0.1 mg/dL, the IC50 [2] is listed as 33500 ± 4200 nM and the IC50 [3] is listed as 1870 ± 220 nM. The “Inhibitor-sensitive accumulation in cells transfected with OAT3” value [4] was “no inhibitor-sensitive accumulation”, the IC50 [5] was 990 nM and the IC50 [6] was > 100000 nM. The “Concentration-dependent inhibition of OCT3-dependent transport” value [6] was “lack of concentration-dependent inhibition”, the “Bound to plasma proteins” value [7] was “over 90%” and the “Increase in cobicistat accumulation in cells transfected with OCT2” value [8] was 2.9 fold. The IC50 [9] was > 100000 nM, the “Transporter-dependent uptake in primary proximal tubule cells” value [10] was “small but reproducible decreases in accumulation in the presence of the transport inhibitors cimetidine or probenecid” and the IC50 [11] was 24000 ± 4600 nM. The Maximum plasma concentration ([12]; clinical) was 1.4 µmol/L and the Renal elimination ([12]; in humans) was “approximately 8%”.

For `C[C@@H]1CCO[C@H]2Cn3cc(C(=O)NCc4ccc(F)cc4F)c(=O)c(O)c3C(=O)N12` [Dolutegravir, dolutegravir], the Serum creatinine increases [1] is listed as ~0.1 mg/dL, the IC50 [2] is listed as > 100000 nM and the IC50 [3] is listed as 4670 ± 1110 nM. The IC50 [6] was > 100000 nM, the “Concentration-dependent inhibition of OCT3-dependent transport” value [6] was “lack of concentration-dependent inhibition” and the IC50 [9] was > 100000 nM. The “Concentration-dependent inhibition of OAT2-dependent transport” value ([9]; model substrate, curve could not be generated) was “lack of concentration-dependent inhibition”, the IC50 [11] was 66 ± 3 nM and the IC50 [13] was 110 nM.

In the case of `CCc1nc(N)nc(N)c1-c1ccc(Cl)cc1` [Pyrimethamine, pyrimethamine], the “Decreases in creatinine clearance” value [14] is given as 15–34 ml/min per 1.73 m^2, the Ki [15] is given as 93 nM and the Ki [16] is given as 59 nM.
